The experiment relates to Alternaria solani. Put plainly: Activity against early blight of tomato caused by Alternaria solani. Format: in vivo. To be noted: 250 ppm, spray on tomato leaves, rated after 5 days; untreated control 80% infected. How it is done: The active compounds were formulated separately as a stock solution comprising 0.25% by weight of active compound in acetone or DMSO. 1% by weight of the emulsifier Uniperol® EL (wetting agent having emulsifying and dispersing action based on ethoxylated alkylphenols) was added to this solution. The stock solutions of the active compounds were diluted with water to the stated concentration. Leaves of potted plants of the cultivar “Golden Princess” were sprayed to runoff point with an aqueous suspension having the concentration of active compound stated below. The next day, the leaves were infected with an aqueous spore suspension of Alternaria solani in 2% biomalt solution having a density of 0.17×10^6 spore/ml. The plants were then placed in a water-vapor saturated chamber at temperatures between 20 and 22° C. After 5 days, the blight on the untreated, but infected control plants had developed to such an extent that the infection could be determined visually in %.

For `CCC(C)Cc1c(-c2c(F)cc(F)cc2F)c(C)nc2nc(OC)nn12` (stereo not shown) [I-11, 2-Methoxy-5-methyl-6-(2,4,6-trifluorophenyl)-7-(2-methylbutyl)-1,2,4-triazolo[1,5a]pyrimidine], the “infection of the leaves, determined visually” value is recorded as under 10%.

Values taken from patent publication US20060217400A1, “Triazolopyrimidines, methods for the production thereof, use thereof for controlling harmful fungi, and substances containing said triazolopyrimidines” (priority 2002, published 2006).
